The molecules below were run against T1, Human immunodeficiency virus type 1 protease (Human immunodeficiency virus 1, UniProt Q72874) (assay: Binding affinity against HIV-1 protease was determined).

SMILES	Ki [nM]
COc1ccc(S(=O)(=O)N(CC2CCCC2)C[C@@H](O)CN(CCc2ccccc2)C(=O)Nc2ccccc2)cc1	> 20000
CNC(=O)N(CCc1ccccc1)C[C@H](O)CN(CC1CCCC1)S(=O)(=O)c1ccc(OC)cc1	3400
COc1ccc(S(=O)(=O)N(CC2CCCC2)C[C@@H](O)CN(CCc2ccccc2)C(=O)NC(C)C)cc1	> 10000
COc1ccc(S(=O)(=O)N(CC2CCCC2)C[C@@H](O)CN(CCc2ccccc2)C(=O)NC(C)(C)C)cc1	2100
COc1ccc(S(=O)(=O)N(CC2CCCC2)C[C@@H](O)CN(CCc2ccccc2)C(=O)N[C@H]2c3ccccc3C[C@H]2O)cc1	43
COc1ccc(S(=O)(=O)N(CC2CCCC2)C[C@@H](O)CN(CCc2ccccc2)C(=O)Nc2cccc(OC)c2)cc1	> 10000
COc1ccc(S(=O)(=O)N(CC2CCCC2)C[C@@H](O)CN(CCc2ccccc2)C(=O)NC2CCc3ccccc32)cc1 (some centres undefined)	> 10000
COc1ccc(S(=O)(=O)N(CC2CCCC2)C[C@@H](O)CN(CCc2ccccc2)C(=O)NCc2ccccc2)cc1	22

These molecules were tested against T1, Human immunodeficiency virus type 1 protease (assay: Binding affinity to HIV-1 protease was determined).

SMILES	Ki [nM]
COc1ccc(S(=O)(=O)N(CC2CCCC2)C[C@@H](O)CN(CCc2ccccc2)C(=O)Cc2ccccc2)cc1	20
COc1ccc(S(=O)(=O)N(CC2CCCC2)C[C@@H](O)CN(CCc2ccccc2)C(=O)OCc2cncs2)cc1	38
COc1ccc(S(=O)(=O)N(CC2CCCC2)C[C@@H](O)CN(Cc2ccccc2)C(=O)O[C@H]2CCOC2)cc1	600
COc1ccc(S(=O)(=O)N(CC2CCCC2)C[C@@H](O)CN(CCc2ccccc2)C(=O)OC2CCCSC2)cc1 (some centres undefined)	300
COc1ccc(S(=O)(=O)N(CC2CCCC2)C[C@@H](O)CN(CCc2ccccc2)C(=O)OC2CCCS(=O)(=O)C2)cc1 (some centres undefined)	1400
COc1ccc(S(=O)(=O)N(CC2CCCC2)C[C@@H](O)CN(CCc2ccccc2)C(=O)Cc2cccc(O)c2C)cc1	66
COc1ccc(S(=O)(=O)N(CC2CCCC2)C[C@@H](O)CN(CCc2ccccc2)C(=O)OC2COCOC2)cc1	15
COc1ccc(S(=O)(=O)N(CC2CCCC2)C[C@@H](O)CN(CCc2ccccc2)C(=O)O[C@H]2CCOC2)cc1	40
COc1ccc(S(=O)(=O)N(CC2CCCC2)C[C@@H](O)CN(CCc2ccccc2)C(=O)Oc2ccccc2)cc1	173
COc1ccc(S(=O)(=O)N(CC2CCCC2)C[C@@H](O)CN(CCc2ccccc2)C(=O)OC2CCSC2)cc1 (some centres undefined)	104
COc1ccc(S(=O)(=O)N(CC2CCCC2)C[C@@H](O)CN(CCc2ccccc2)C(=O)OC2CCS(=O)(=O)C2)cc1 (some centres undefined)	38
COc1ccc(S(=O)(=O)N(CC2CCCC2)C[C@@H](O)CN(CCc2ccccc2)C(=O)Cc2cncc(NS(N)(=O)=O)c2)cc1	220
COc1ccc(S(=O)(=O)N(CC2CCCC2)C[C@@H](O)CN(CCc2ccccc2)C(=O)OC(C)(C)C)cc1	125
COc1ccc(S(=O)(=O)N(CC2CCCC2)C[C@@H](O)CN(CCc2ccccc2)C(=O)O[C@@H]2CO[C@H]3OCC[C@H]32)cc1	50
COc1ccc(S(=O)(=O)N(CC2CCCC2)C[C@@H](O)CN(CCc2ccccc2)C(=O)OCc2cccnc2)cc1	17
COc1ccc(S(=O)(=O)N(CC2CCCC2)C[C@@H](O)CN(CCc2ccccc2)C(=O)Cc2cccc(NS(N)(=O)=O)c2)cc1	29
COc1ccc(S(=O)(=O)N(CC2CCCC2)C[C@@H](O)CN(CCc2ccccc2)C(=O)CC2CCCC(NS(N)(=O)=O)C2)cc1 (some centres undefined)	76
COc1ccc(S(=O)(=O)N(CC2CCCC2)C[C@@H](O)CN(CCc2ccccc2)C(=O)OCc2ccncc2)cc1	200
COc1ccc(S(=O)(=O)N(CC2CCCC2)C[C@@H](O)CN(CCc2ccccc2)C(=O)Cc2cccc(NS(N)(=O)=O)c2C)cc1	680
COc1ccc(S(=O)(=O)N(CC2CCCC2)C[C@@H](O)CN(CCc2ccccc2)C(=O)Cc2ccncc2NS(N)(=O)=O)cc1	27
COc1ccc(S(=O)(=O)N(CC(O)CN(CCc2ccccc2)C(=O)N[C@H](C(=O)OCc2ccccc2)C(C)C)CC2CCCC2)cc1 (single isomer, unassigned)	7

Source: ChEMBL document CHEMBL1130720, “Design, synthesis, and conformational analysis of a novel series of HIV protease inhibitors” (Bioorg Med Chem Lett, 1998)
